For four compounds, Emax and EC50 results are on record in patent US20230265151A1, “GIP/GLP1 CO-AGONIST COMPOUNDS” (priority 2020, published 2023).

Common to all, as to assay type: cell-based
For assay [1], the target named is T1, hGIPR (Homo sapiens, UniProt P48546).
T1 construct: expressed in transfected cells
T1 sequence (P48546 22-466): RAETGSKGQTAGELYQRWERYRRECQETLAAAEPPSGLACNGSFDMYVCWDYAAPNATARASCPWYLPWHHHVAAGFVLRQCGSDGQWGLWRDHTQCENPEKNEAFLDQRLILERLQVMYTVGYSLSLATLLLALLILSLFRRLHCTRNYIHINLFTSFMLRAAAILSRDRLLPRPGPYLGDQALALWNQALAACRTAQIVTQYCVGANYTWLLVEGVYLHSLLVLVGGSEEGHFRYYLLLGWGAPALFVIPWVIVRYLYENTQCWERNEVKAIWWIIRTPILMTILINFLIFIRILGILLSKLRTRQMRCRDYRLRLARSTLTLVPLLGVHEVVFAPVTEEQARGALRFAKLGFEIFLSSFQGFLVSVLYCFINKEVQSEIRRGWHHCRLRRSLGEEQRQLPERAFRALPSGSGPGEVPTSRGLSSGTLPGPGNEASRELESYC
Description: Functional cAMP formation (HTRF) in HEK-293 clonal cells expressing hGIPR, 0.1% bovine casein, without or with 1.0% human serum albumin. To be noted: for EC50: cAMP. In short, it runs like this: (§1)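 Cells were stimulated with peptide for 30 min at 37° C, then intracellular cAMP was measured by competitive HTRF (665/620 nm ratio) and converted to nM using a cAMP standard curve. Relative EC50 and Emax came from four-parameter logistic fits of percent maximal response against peptide concentration.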

The target of assay [2] is T2, hGCGR (Homo sapiens, UniProt P47871).
T2 construct: expressed in transfected cells
Description: Functional cAMP formation (HTRF) in HEK-293 clonal cells expressing hGCGR, 0.1% bovine casein, without or with 1.0% human serum albumin. In outline:
as §1
On the technique in general: Cyclic AMP is a second messenger, typically raised through Gs and lowered through Gi signalling.

Assay [3] addresses hGLP-1R (Homo sapiens, UniProt P43220). The assay can be described thus: Functional cAMP formation (HTRF) in HEK-293 clonal cells expressing hGLP-1R, 0.1% bovine casein, without or with 1.0% human serum albumin. On the set-up: expressed in transfected cells. To be noted: for EC50: 37° C., geometric mean; for Emax: percent of maximal response to GLP-1(7-36)NH2. In outline:
as §1

Setting [4] is: HEK293, read-out: hGIPR Emax, % ± SEM, cAMP, 37° C., 0.1% bovine casein and 1.0% human serum albumin, percent of maximal response to GIP(1-42)NH2.
Where [5] appears, read: hGIPR EC50, nM (SEM, n), 37° C., 0.1% bovine casein (no human serum albumin), geometric mean.
[6] abbreviates: hGCGR EC50, nM (SEM, n), cAMP, 37° C., 0.1% bovine casein (no human serum albumin), geometric mean.
Setting [7] is: hGCGR EC50, nM (SEM, n), cAMP, 37° C., 0.1% bovine casein and 1.0% human serum albumin, geometric mean (SEM, n).
[8] abbreviates: hGLP-1R EC50, nM (SEM, n), cAMP, 0.1% bovine casein (no human serum albumin).

SMILES strings stand for the structures. Read-outs that look alike come from different tables or passages of the source.

Chain of hGLP-1R (P43220 24-463): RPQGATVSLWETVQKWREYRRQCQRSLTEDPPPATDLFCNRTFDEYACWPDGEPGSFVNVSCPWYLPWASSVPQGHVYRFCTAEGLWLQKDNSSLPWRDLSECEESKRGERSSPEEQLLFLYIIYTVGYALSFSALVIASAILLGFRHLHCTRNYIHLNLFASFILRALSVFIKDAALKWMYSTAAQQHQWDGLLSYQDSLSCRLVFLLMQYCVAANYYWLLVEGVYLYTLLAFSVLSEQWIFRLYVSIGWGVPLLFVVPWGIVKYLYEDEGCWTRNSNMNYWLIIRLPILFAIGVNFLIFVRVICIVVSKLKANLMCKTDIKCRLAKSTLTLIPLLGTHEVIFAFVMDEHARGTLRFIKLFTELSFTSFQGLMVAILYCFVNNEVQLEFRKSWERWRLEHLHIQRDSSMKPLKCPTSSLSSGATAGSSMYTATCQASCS
T2 sequence (P47871 26-477): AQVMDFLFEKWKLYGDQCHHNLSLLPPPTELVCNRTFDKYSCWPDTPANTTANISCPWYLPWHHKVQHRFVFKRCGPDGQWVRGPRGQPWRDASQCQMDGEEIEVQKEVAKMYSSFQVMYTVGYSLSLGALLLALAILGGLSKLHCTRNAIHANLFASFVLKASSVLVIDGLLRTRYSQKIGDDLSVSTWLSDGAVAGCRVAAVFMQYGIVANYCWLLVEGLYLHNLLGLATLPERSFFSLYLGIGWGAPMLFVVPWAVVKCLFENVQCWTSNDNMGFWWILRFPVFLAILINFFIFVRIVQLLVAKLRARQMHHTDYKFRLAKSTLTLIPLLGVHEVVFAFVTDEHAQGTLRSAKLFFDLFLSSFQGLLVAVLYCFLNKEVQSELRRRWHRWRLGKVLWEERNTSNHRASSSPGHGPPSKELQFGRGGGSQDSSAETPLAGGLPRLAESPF

`CC[C@H](C)[C@H](NC(=O)[C@H](CC(C)C)NC(=O)[C@](C)(Cc1ccc(O)cc1)NC(=O)[C@@H](CCC(=O)O)NC(=O)[C@@H](NC(=O)[C@H](Cc1ccccc1)NC(=O)[C@H](CCC(=O)O)NC(=O)C(C)(C)NC(=O)[C@H](CCC(N)=O)NC(=O)[C@H](C)NC(=O)[C@H](CCCCNC(=O)COCCOCCNC(=O)COCCOCCNC(=O)CCCCCCCCCCCCC(=O)O)NC(=O)[C@H](CCCN)NC(=O)[C@H](CC(=O)O)NC(=O)[C@H](CC(C)C)NC(=O)[C@](C)(CC(C)C)NC(=O)[C@@H](NC(=O)C(C)(C)NC(=O)[C@H](Cc1ccncc1)NC(=O)[C@H](CC(=O)O)NC(=O)[C@H](CO)NC(=O)[C@@H](NC(=O)[C@](C)(Cc1ccccc1F)NC(=O)[C@@H](NC(=O)CNC(=O)[C@H](CCC(=O)O)NC(=O)C(C)(C)NC(=O)[C@@H](N)Cc1ccc(O)cc1)[C@@H](C)O)[C@@H](C)O)[C@@H](C)CC)[C@@H](C)CC)C(=O)N[C@@H](CCCCNC(=O)COCCOCCNC(=O)COCCOCCNC(=O)CCCCCCCCCCCCC(=O)O)C(=O)NCC(=O)NCC(=O)N1CCC[C@H]1C(=O)N[C@@H](CO)C(=O)N[C@@H](CO)C(=O)NCC(=O)N[C@@H](C)C(=O)N1CCC[C@H]1C(=O)N1CCC[C@H]1C(=O)N1CCC[C@H]1C(=O)N[C@@H](CO)C(N)=O` [Example 387]: the maximal response (Emax) (in general, the greatest response seen or fitted, relative to the assay's reference) in assay [1] (HEK293, cAMP, 37° C., 0.1% bovine casein and 1.0% human serum albumin, percent of maximal response to GIP(1-42)NH2, read-out: hGIPR Emax, % ± SEM) was 93%. Further, the 50% effective concentration (EC50) – broadly, the concentration at which the effect is half-maximal – in assay [1] (37° C., 0.1% bovine casein (no human serum albumin), geometric mean, read-out: hGIPR EC50, nM (SEM, n)) was 0.0137 nM; in assay [2] (cAMP, 37° C., 0.1% bovine casein (no human serum albumin), geometric mean, read-out: hGCGR EC50, nM (SEM, n)) it was > 9950 nM; in assay [2] (cAMP, 37° C., 0.1% bovine casein and 1.0% human serum albumin, geometric mean (SEM, n), read-out: hGCGR EC50, nM (SEM, n)), > 9950 nM; in assay [3] (cAMP, 0.1% bovine casein (no human serum albumin), read-out: hGLP-1R EC50, nM (SEM, n)) it was 0.32 nM.

In the case of `CC[C@H](C)[C@H](NC(=O)[C@H](CC(C)C)NC(=O)[C@](C)(Cc1ccc(O)cc1)NC(=O)[C@@H](CCC(=O)O)NC(=O)[C@@H](NC(=O)[C@H](Cc1ccccc1)NC(=O)[C@H](CCC(=O)O)NC(=O)C(C)(C)NC(=O)[C@H](CCC(N)=O)NC(=O)[C@H](C)NC(=O)[C@H](CCCCNC(=O)COCCOCCNC(=O)COCCOCCNC(=O)CCCCCCCCCOc1ccc(C(=O)O)cc1)NC(=O)[C@H](CCCN)NC(=O)[C@H](CC(=O)O)NC(=O)[C@H](CC(C)C)NC(=O)[C@](C)(CC(C)C)NC(=O)[C@@H](NC(=O)C(C)(C)NC(=O)[C@H](Cc1ccc(O)cc1)NC(=O)[C@H](CC(=O)O)NC(=O)[C@H](CO)NC(=O)[C@@H](NC(=O)[C@](C)(Cc1ccccc1F)NC(=O)[C@@H](NC(=O)CNC(=O)[C@H](CCC(=O)O)NC(=O)C(C)(C)NC(=O)[C@@H](N)Cc1ccc(O)cc1)[C@@H](C)O)[C@@H](C)O)[C@@H](C)CC)[C@@H](C)CC)C(=O)N[C@@H](CCCCNC(=O)COCCOCCNC(=O)COCCOCCNC(=O)CCCCCCCCCOc1ccc(C(=O)O)cc1)C(=O)NCC(=O)NCC(=O)N1CCC[C@H]1C(=O)N[C@@H](CO)C(=O)N[C@@H](CO)C(=O)NCC(=O)N[C@@H](C)C(=O)N1CCC[C@H]1C(=O)N1CCC[C@H]1C(=O)N1CCC[C@H]1C(=O)N[C@@H](CO)C(N)=O` [Example 396], the Emax came out at 67.1% in assay [1] (setting [4]); 96.2% in assay [1] (HEK293, read-out: hGIPR Emax, % ± SEM, cAMP, 37° C., 0.1% bovine casein, percent of maximal response to GIP(1-42)NH2, arithmetic mean); 94.4% in assay [3] (HEK293, read-out: hGLP-1R Emax, % ± SEM, cAMP, 37° C., 0.1% bovine casein and 1.0% human serum albumin). The EC50 is 0.0113 nM in assay [1] (setting [5]); 0.595 nM in assay [1] (hGIPR EC50, nM (SEM, n), 37° C., 0.1% bovine casein and 1.0% human serum albumin, geometric mean (SEM, n)); > 9950 nM in assay [2] (setting [6]); > 9950 nM in assay [2] (setting [7]); 0.291 nM in assay [3] (setting [8]).

Consider `CC[C@H](C)[C@H](NC(=O)[C@H](CC(C)C)NC(=O)[C@](C)(Cc1ccc(O)cc1)NC(=O)[C@H](CCCCNC(=O)COCCOCCNC(=O)COCCOCCNC(=O)CC[C@H](NC(=O)CCCCCCCCCCOc1ccc(C(=O)O)cc1)C(=O)O)NC(=O)[C@@H](NC(=O)[C@H](Cc1ccccc1)NC(=O)[C@H](CCCN)NC(=O)C(C)(C)NC(=O)[C@H](CCC(N)=O)NC(=O)[C@H](C)NC(=O)[C@H](CCC(N)=O)NC(=O)[C@H](CCCN)NC(=O)[C@H](CC(=O)O)NC(=O)[C@H](CC(C)C)NC(=O)[C@](C)(CC(C)C)NC(=O)[C@@H](NC(=O)C(C)(C)NC(=O)[C@H](Cc1ccncc1)NC(=O)[C@H](CC(=O)O)NC(=O)[C@H](CO)NC(=O)[C@@H](NC(=O)[C@](C)(Cc1ccccc1F)NC(=O)[C@@H](NC(=O)CNC(=O)[C@H](CCC(=O)O)NC(=O)C(C)(C)NC(=O)[C@@H](N)Cc1ccc(O)cc1)[C@@H](C)O)[C@@H](C)O)[C@@H](C)CC)[C@@H](C)CC)C(=O)N[C@@H](CCCCNC(=O)COCCOCCNC(=O)COCCOCCNC(=O)CC[C@H](NC(=O)CCCCCCCCCCOc1ccc(C(=O)O)cc1)C(=O)O)C(=O)NCC(=O)NCC(=O)N1CCC[C@H]1C(=O)N[C@@H](CO)C(=O)N[C@@H](CO)C(=O)NCC(=O)N[C@@H](C)C(=O)N1CCC[C@H]1C(=O)N1CCC[C@H]1C(=O)N1CCC[C@H]1C(=O)N[C@@H](CO)C(N)=O` [Example 442], for which the Emax was determined as 92.1% in assay [1] (setting [4]) and 113% in assay [3] (HEK293, read-out: hGLP-1R Emax, % ± SEM, cAMP, 37° C., 0.1% bovine casein, arithmetic mean). The EC50 in assay [1] (setting [5]) was 0.0129 nM; in assay [2] (setting [6]), > 9950 nM; in assay [2] (setting [7]), > 9950 nM; in assay [3] (setting [8]), 0.285 nM.

`CC[C@H](C)[C@H](NC(=O)[C@H](CC(C)C)NC(=O)[C@](C)(Cc1ccc(O)cc1)NC(=O)[C@@H](CCC(=O)O)NC(=O)[C@@H](NC(=O)[C@H](Cc1ccccc1)NC(=O)[C@H](CCC(=O)O)NC(=O)C(C)(C)NC(=O)[C@H](CCC(N)=O)NC(=O)[C@H](C)NC(=O)[C@H](CCCCNC(=O)COCCOCCNC(=O)COCCOCCNC(=O)CC[C@H](NC(=O)CCCCCCCCCCCCC(=O)O)C(=O)O)NC(=O)[C@H](CCCN)NC(=O)[C@H](CC(=O)O)NC(=O)[C@H](CC(C)C)NC(=O)[C@](C)(CC(C)C)NC(=O)[C@@H](NC(=O)[C@H](CO)NC(=O)C1(NC(=O)[C@H](CC(=O)O)NC(=O)[C@H](CO)NC(=O)[C@@H](NC(=O)[C@](C)(Cc2ccccc2F)NC(=O)[C@@H](NC(=O)CNC(=O)[C@H](CCC(=O)O)NC(=O)C(C)(C)NC(=O)[C@@H](N)Cc2ccc(O)cc2)[C@@H](C)O)[C@@H](C)O)CCCCC1)[C@@H](C)CC)[C@@H](C)CC)C(=O)N[C@@H](CCC(=O)O)C(=O)NCC(=O)NCC(=O)N[C@@H](CCCCNC(=O)COCCOCCNC(=O)COCCOCCNC(=O)CC[C@H](NC(=O)CCCCCCCCCCCCC(=O)O)C(=O)O)C(=O)N[C@@H](CO)C(=O)N[C@@H](CO)C(=O)NCC(=O)N[C@@H](C)C(=O)N1CCC[C@H]1C(=O)N1CCC[C@H]1C(=O)N1CCC[C@H]1C(=O)N[C@@H](CO)C(N)=O` [Example 54]: the Emax in assay [1] (HEK293, 0.1% bovine casein and 1.0% human serum albumin, 37° C., percent of maximal response to GIP(1-42)NH2, read-out: hGIPR Emax, % ± SEM) came out at 85.6%; in assay [1] (HEK293, percent of maximal response to GIP(1-42)NH2, 37° C., 0.1% bovine casein, arithmetic mean, read-out: hGIPR Emax, % ± SEM), 113%. For the same compound, the EC50 is > 9950 nM in assay [2] (0.1% bovine casein and 1.0% human serum albumin, 37° C., geometric mean, read-out: hGCGR EC50, nM (SEM, n)); > 9950 nM in assay [2] (cAMP, incubated at 37° C., 0.1% bovine casein (no human serum albumin), geometric mean, read-out: hGCGR EC50, nM (SEM, n)); 20.3 nM in assay [3] (0.1% bovine casein and 1.0% human serum albumin, read-out: hGLP-1R EC50, nM (SEM, n)).
